Data published in US11571567B2, “Iontophoresis device for drug delivery and method for manufacturing the same” (BIOSENSOR LABORATORIES INC., priority 2016, dated 2023).

Assay: Drug delivery effect of the RED iontophoresis device through excised hairless mouse back skin (HPLC/LC-MS of stratum corneum and dermis)
Assay type: in vitro ADME
Conditions: after 3 hours, FIG. 10
Description: FIG. 10 is a graph illustrating drug delivery effects of the iontophoresis device according to an embodiment. In order to confirm the drug delivery effects, the RED battery unit was prepared in the same manner as in preparation of the RED battery unit prepared for the measurement in FIG. 6, except that the number of chamber layers was 15, and a size of the chamber was 1 cm×0.8 cm. Also, 3M clectrically conductible adhesive tape (ECAT), which is conductive fabric, was used as an intermediate unit. The first material containing unit was prepared as follows. 2.5 wt % of 2-phospho I-ascorbic acid trisodium (VCP) (available from Sigma Aldrich, US) and 3 w/v % of Carbopol 940 were dissolved in 1×PBS having pH of 7.4. By titrating with 1 M HCl and 1 M NaOH, a pH of the first material containing unit including vitamin C (VCP) was adjusted to 7. This is a stable pH at which VCP exists in the ionized form. As a thickening agent used in preparation of a dosage form, Carbopol was prepared as a sol while controlling a pH using pH indicator paper (available from GE healthcare, UK). The resultant was sufficiently stirred by using a glass rod so that a material in the first material containing unit was homogenous after each titration process. […]

SMILES: O=C1O[C@H]([C@@H](O)CO)C(O)=C1OP(=O)(O)O.[Na+].[Na+].[Na+] [VCP, 2-phospho I-ascorbic acid trisodium]
- drug remaining amount in the stratum corneum (control group (Ctrl): device with the same drug concentration, not activated by water, excised haireless mouse back skin): more drug remaining amount was found in the stratum corneum
- vitamin C (VCP) delivered to the skin, i.e., dermis (experimental group (RED single): activated iontophoresis device, 15 chamber layers, 2.5 wt % VCP in Carbopol sol pH 7, excised haireless mouse (Sk-hr 1) back skin): about 40%
